Reference: PubChem BioAssay (NCI)
Where “and” joins values, the source holds several entries; their conditions need not be identical. Equal values may be shown once.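 Following 48 hours of exposure in 96-well plates, responses at five concentrations were used to interpolate endpoints linearly. At the GI50, growth is halved. TGI marks complete inhibition of growth.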

Assays:
Test in all cases: NCI tumour cell line growth inhibition, 48 h; in the data active = GI50 below about 0.43 µM; inactive = the rest
[1] = system: IGROV1 ovarian
[2] = system: OVCAR-4 ovarian
[3] = system: CAKI-1 renal
[4] = system: NCI-H23 lung
[5] = system: COLO 205 colon
[6] = system: MOLT-4 leukemia
[7] = system: MALME-3M melanoma
[8] = system: HT29 colon
[9] = system: PC-3 prostate
[10] = system: HS 578T breast

CC1(C)CCOC(Sc2ccccc2)C1 (stereo unspecified)
> 100 µM: TGI [1] | TGI [2] | TGI [3] | TGI [4] | TGI [5] | TGI [6]

O=S(=O)(c1ccccc1)C1(C2(S(=O)(=O)c3ccccc3)CCN=N2)CCN=N1 (stereo unspecified)
> 100 µM: TGI [7] | TGI [1] | TGI [2] | TGI [3] | TGI [8] | TGI [4] | TGI [5] | TGI [6]

O=S(=O)([O-])c1ccc(C=Nc2ccccc2)c([O-])c1.O=S(=O)([O-])c1ccc(C=Nc2ccccc2)c([O-])c1.[Co+2]
inactive: GI50 [7] 99.1 µM | GI50 [1] > 100 µM | GI50 [4] > 100 µM | GI50 [5] 70.5 µM | GI50 [6] 7.71 µM
> 100 µM: TGI [7] | TGI [1] | TGI [4] | TGI [5] | TGI [6]

O=C(O)CC(CC(=O)O)n1cccc1
> 100 µM: TGI [1] | TGI [9] | TGI [2] | TGI [3] | TGI [8] | TGI [4] | TGI [5] | TGI [6]

CCOC(=O)N1C/C(=C\c2ccc(N(C)C)cc2)C(=O)/C(=C/c2ccc(N(C)C)cc2)C1
> 100 µM: TGI [7] | TGI [1] | TGI [2] | TGI [3] | TGI [8] | TGI [4] | TGI [5] | TGI [6]

O=[N+]([O-])C(=C1c2ccccc2-c2ccccc21)[N+](=O)[O-]
> 100 µM: TGI [1] | TGI [2] | TGI [3] | TGI [8] | TGI [5] | TGI [6]
> 10 µM: TGI [4]

Nc1ncnc2c1ncn2C1(CO)OC(CO)C(O)C1O (stereo unspecified)
> 100 µM: TGI [7] | TGI [2] | TGI [3] | TGI [8] | TGI [4] | TGI [5] | TGI [6]

CN1C=C(C(N)=O)Cc2ccsc21
> 100 µM: TGI [7] | TGI [1] | TGI [2] | TGI [3] | TGI [8] | TGI [4] | TGI [5] | TGI [6]

Cc1nc2sc(C(=O)Nc3cccc4c3OCCO4)c(N)c2cc1C(C)O (stereo unspecified)
> 100 µM: TGI [1] | TGI [9] | TGI [2] | TGI [3] | TGI [8] | TGI [4] | TGI [10] | TGI [5] | TGI [6]
inactive: GI50 [1] 4.84 µM | GI50 [9] 5 µM | GI50 [2] > 100 µM | GI50 [3] 4.91 µM | GI50 [8] 2.62 µM | GI50 [4] 6.67 µM | GI50 [10] 3.07 µM | GI50 [5] 4.27 µM | GI50 [6] 4.97 µM

CCCCCCCCCCCCNC(=S)OCCCC
52.4 µM: TGI [6]
> 100 µM: TGI [7] | TGI [1] | TGI [2] | TGI [3] | TGI [8] | TGI [4]

CC(C)C[C@H](NC(=O)[C@@H](N)Cc1cccc2ccccc12)B(O)O
inactive: GI50 [1] 0.836 µM | GI50 [9] 1.12 µM | GI50 [5] 1.92 µM
0.426 µM and 0.0707 µM: TGI [7]
active: GI50 [7] 0.156 µM | GI50 [2] 0.0384 µM | GI50 [3] 0.225 µM | GI50 [8] 0.216 µM | GI50 [4] 0.245 µM | GI50 [6] 0.21 µM

Cc1ccc(C)c(NC(=O)C(=O)C(C2C(C)CC(=O)C2CC(=O)O)[N+](=O)[O-])c1 (stereo unspecified)
> 100 µM: TGI [7] | TGI [1] | TGI [2] | TGI [3] | TGI [8] | TGI [4] | TGI [5] | TGI [6]

COC(=O)c1cc2c3cc(Cl)ccc3[nH]c2c2ncccc12
> 100 µM: TGI [7] | TGI [1] | TGI [9] | TGI [2] | TGI [3] | TGI [8] | TGI [4] | TGI [5] | TGI [6]
inactive: GI50 [7] > 100 µM | GI50 [1] 77.4 µM | GI50 [9] > 100 µM | GI50 [2] > 100 µM | GI50 [3] > 100 µM | GI50 [8] > 100 µM | GI50 [4] > 100 µM | GI50 [5] > 100 µM | GI50 [6] > 100 µM

O=C(Nc1cccc2[nH]c(C(F)(F)F)nc12)c1ccc(Br)cc1F
22.8 µM: TGI [10]
10.6 µM: TGI [4]
23.3 µM: TGI [6]
inactive: GI50 [7] 2.86 µM | GI50 [1] 6.75 µM | GI50 [9] 2.75 µM | GI50 [3] 2.89 µM | GI50 [4] 3.12 µM | GI50 [10] 3.54 µM | GI50 [5] 2.63 µM | GI50 [6] 3.83 µM
6.33 µM: TGI [5]
10.4 µM: TGI [9]
32.4 µM: TGI [1]
6.82 µM: TGI [7]
15.7 µM: TGI [3]

O=C(OCc1ccccc1)N1N=NC2C3CC(OCc4ccccc4)(OCc4ccccc4)C(O3)C21 (stereo unspecified)
60.7 µM: TGI [6]
43.1 µM: TGI [7]
38.9 µM: TGI [4]
63 µM: TGI [5]
> 100 µM: TGI [1] | TGI [2] | TGI [3] | TGI [8]

COc1ccc(/C(=N/O)c2cc(F)c(F)c(OC)c2F)cc1O
30 µM: TGI [6]
inactive: GI50 [1] 0.815 µM | GI50 [9] 0.565 µM | GI50 [2] 9.1 µM | GI50 [3] 0.538 µM | GI50 [8] 3.6 µM | GI50 [4] 1.9 µM | GI50 [10] 0.938 µM | GI50 [5] 5.46 µM | GI50 [6] 0.43 µM
25.6 µM: TGI [5]
65.4 µM: TGI [8]
> 100 µM: TGI [1] | TGI [9] | TGI [2] | TGI [3] | TGI [4] | TGI [10]

O=C(N/N=C/c1coc2ccc(Cl)cc2c1=O)c1cc(O)c(O)c(O)c1
48.1 µM: TGI [4]
73.3 µM: TGI [10]
61.6 µM: TGI [6]
> 100 µM: TGI [1] | TGI [9] | TGI [2] | TGI [8] | TGI [5]
inactive: GI50 [1] 44.5 µM | GI50 [9] 33.2 µM | GI50 [2] 98.4 µM | GI50 [3] 25 µM | GI50 [8] 63.8 µM | GI50 [4] 16.2 µM | GI50 [10] 18.3 µM | GI50 [5] 55.7 µM | GI50 [6] 13.7 µM
70 µM: TGI [3]

CCOC(=O)c1ccc(N[C@@H]2c3cc4c(cc3C(c3cc(OC)c(O)c(OC)c3)[C@H]3C(=O)OCC32)OCO4)cc1 (stereo partly specified)
10 µM: TGI [1]
inactive: GI50 [1] 0.962 µM | GI50 [8] 0.949 µM | GI50 [5] 0.833 µM
2.95 µM: TGI [7]
0.854 µM and 3.88 µM: TGI [3]
6.92 µM: TGI [8]
0.768 µM and 2.24 µM: TGI [4]
12.6 µM: TGI [2]
7.68 µM: TGI [5]
active: GI50 [7] 0.343 µM | GI50 [3] 0.109 µM | GI50 [4] 0.191 µM | GI50 [6] 0.0271 µM
20.6 µM: TGI [9]
0.219 µM and 0.158 µM: TGI [6]

CC1Nc2ccccc2NC1C=C(C#N)C#N (stereo unspecified)
36.9 µM: TGI [8]
32.3 µM: TGI [7]
34.6 µM: TGI [4]
37.8 µM: TGI [1]
34.4 µM: TGI [5]
24.6 µM: TGI [6]
31.6 µM: TGI [2]
28.9 µM: TGI [3]

Cc1ncc2c(n1)CCC1=C2OS(=O)(=O)CC1N(C)C (stereo unspecified)
> 100 µM: TGI [1] | TGI [9] | TGI [2] | TGI [3] | TGI [8] | TGI [4] | TGI [10] | TGI [5] | TGI [6]
